Legend:
[1] = DPPH scavenging method (antioxidation); type: biochemical; details: 0.25%, positive control, dilution not given
Source text: To add antioxidation properties to the self-foaming cleansing composition, tocopherol (Vitamin E) can be added. Antioxidation can be measured using a DPPH scavenging method where DPPH (1,1-Diphenyl-2-picrylhydrazyl) is a stable free radical. On accepting hydrogen from a corresponding donor, its solutions lose a characteristic deep purple color and antiradical activity of tested formulations can be expressed as a percentage decrease of DPPH concentration. […] Accordingly, in a further aspect, the invention relates to the use of tocopherol in a composition according to the invention to provide anti-oxidant activity to the cleansing composition, preferably dose-dependent anti-oxidant activity. The invention relates further to the use of tocopherol to reduce free radicals in a cleansing composition according to the invention, preferably dose-dependent anti-oxidant activity. In a further embodiment, it may be preferred that the cleansing composition of the invention comprises tocopherol and moringa seed oil.
The antioxidant activity of the formulations in Samples 4 and 5 were tested using the DPPH scavenging method (1,1-Diphenyl-2-picrylhydrazyl). DPPH is a stable free radical. […] The antiradical activity of Samples 4 and 5 was expressed as a percentage decrease of DPPH concentration.

[2] = system: AQP3; assay: Living skin equivalent assay, AQP3 gene expression; type: cell-based
Method: (§1) In the following samples, compositions were made with varying levels of moringa seed oil and tested in a living skin equivalent assay. The base composition was tested with levels of 0.1% by weight, 0.2% by weight, and 0.3% by weight of moringa seed oil, based on the total weight of the self-foaming cleansing composition. The living skin equivalent assay study monitored gene expression of several markers after application of the test solutions to the living skin equivalent assay.
(§2) Comparative Example 1 was a non-treated control meaning no application on the skin model. Comparative Example 2 was another control where phosphate-buffered saline (PBS) was applied topically to the skin model.

[3] = system: IL-1a; assay: Living skin equivalent assay, IL-1a; type: cell-based; details: living skin equivalent after application of test solution
Method: as §1, §2

[4] = system: CASP14; assay: Living skin equivalent assay, CASP14 gene expression; type: cell-based
Method: as §1, §2

Compound | % Reduction over DPPH reagent control [1] [%] | AQP3 (Fold change) [2] [Fold change] | IL-1a [3] [pg/mL] | CASP14 (Fold change) [4] [Fold change]
O=C1O[C@H]([C@@H](O)CO)C(O)=C1O [Vitamin C] | 95.04 |  |  | 
squalene monoperoxide [SQOOH] |  | 0.27 ± 0.04 | 483.84 ± 11.42 | 0.54 ± 0.31

Reference: US20260076893A1, “SELF-FOAMING CLEANSING COMPOSITION” (Conopco, Inc., d/b/a UNILEVER, priority 2022, published 2026)
